Results as given in patent US11911364B2, “Positive allosteric modulators of GABAA receptor” (PEPTICOM LTD., priority 2018, dated 2024).

Target: T1, human GABA receptor (subunits α1β3γ2) (Homo sapiens, UniProt P14867+P18507+P28472)
T1 construct: expressed in transfected cells; host or cells: HEK293
Assay: Manual whole-cell patch-clamp recording of GABA receptor-mediated Cl- current in HEK293 cells
Type: cell-based
Conditions: for mode of action at the human GABAA receptor: human GABAA receptor α1β3γ2, electrophysiological recordings; for effect on human GABA receptor-mediated Cl- current: human α1β3γ2 receptor expressed in HEK293 cells, manual whole-cell patch-clamp
Procedure: All the compounds of the present invention were tested and validated using electrophysiological recordings on the human GABAA receptor comprising of the following subunits α1β3γ2. The compounds of the present invention are used in the preparation of a neuroactive pharmaceutical composition, in improving sperm motility or in labeling of biomolecules.
The human GABA receptor (subunits α1β3γ2) was expressed in HEK293 cells in manual whole-cell patch-clamp settings.
These compounds of the present invention are experimentally shown to specifically bind to the GABAA receptor. Therefore, they are capable of activating, inhibiting or modulating the GABAA receptor. These compounds were derived in-silico and tested in-vitro in cell cultures. […] The human GABA receptor (subunits α1β3γ2) used in these experiments was expressed in the HEK293 cells in manual whole-cell patch-clamp settings.

T1 sequence (P14867 28-456): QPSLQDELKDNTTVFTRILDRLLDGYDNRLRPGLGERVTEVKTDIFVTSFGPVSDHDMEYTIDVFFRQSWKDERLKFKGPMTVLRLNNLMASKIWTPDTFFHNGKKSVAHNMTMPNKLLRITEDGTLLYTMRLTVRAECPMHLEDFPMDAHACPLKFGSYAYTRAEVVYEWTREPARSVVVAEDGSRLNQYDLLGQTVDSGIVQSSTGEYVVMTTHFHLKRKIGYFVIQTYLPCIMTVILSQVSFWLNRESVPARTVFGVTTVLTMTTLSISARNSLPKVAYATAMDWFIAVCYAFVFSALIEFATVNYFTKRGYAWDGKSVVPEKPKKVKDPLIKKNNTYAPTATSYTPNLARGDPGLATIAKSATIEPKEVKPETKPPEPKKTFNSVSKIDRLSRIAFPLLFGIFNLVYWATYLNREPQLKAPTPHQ
T1 sequence (P28472 26-473): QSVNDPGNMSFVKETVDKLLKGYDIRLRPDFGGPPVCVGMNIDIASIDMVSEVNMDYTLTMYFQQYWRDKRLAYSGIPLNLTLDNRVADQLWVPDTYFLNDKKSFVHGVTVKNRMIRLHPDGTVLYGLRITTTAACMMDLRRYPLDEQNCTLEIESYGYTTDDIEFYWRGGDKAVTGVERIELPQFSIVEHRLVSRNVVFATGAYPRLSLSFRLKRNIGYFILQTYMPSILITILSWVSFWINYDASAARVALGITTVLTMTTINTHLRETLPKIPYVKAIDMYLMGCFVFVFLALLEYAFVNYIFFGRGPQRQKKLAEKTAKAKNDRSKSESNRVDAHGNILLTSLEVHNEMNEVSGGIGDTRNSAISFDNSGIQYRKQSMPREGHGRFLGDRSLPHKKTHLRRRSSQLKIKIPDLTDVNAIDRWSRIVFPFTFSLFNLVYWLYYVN
T1 sequence (P18507 40-475): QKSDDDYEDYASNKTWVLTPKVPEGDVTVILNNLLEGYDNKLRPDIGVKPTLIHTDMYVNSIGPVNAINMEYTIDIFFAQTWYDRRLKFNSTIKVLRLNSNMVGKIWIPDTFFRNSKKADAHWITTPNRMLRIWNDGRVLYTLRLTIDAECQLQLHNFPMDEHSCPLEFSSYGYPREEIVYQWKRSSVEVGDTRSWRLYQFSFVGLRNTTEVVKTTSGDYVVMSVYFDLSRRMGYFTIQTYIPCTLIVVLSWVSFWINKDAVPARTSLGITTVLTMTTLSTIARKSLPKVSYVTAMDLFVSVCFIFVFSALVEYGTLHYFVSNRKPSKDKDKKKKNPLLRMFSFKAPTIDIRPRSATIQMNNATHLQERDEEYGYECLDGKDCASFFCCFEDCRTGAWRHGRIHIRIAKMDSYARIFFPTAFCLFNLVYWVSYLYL

Row | Structure (SMILES) | mode of action at the human GABAA receptor | effect on human GABA receptor-mediated Cl- current
1 | O=C(O)CC1(c2ccc(Br)cc2)CNC1 [Compound 2] | inhibiting | selective potentiation
2 | CC(C)CC(NC(=O)c1ccc(S(N)(=O)=O)o1)c1cccs1 (stereo not shown) [Compound 1] | positive allosteric modulation | selective potentiation
